Data: PubChem BioAssay (NCI)
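96-well plates; 48 h exposure; 5 concentrations. Endpoints by linear interpolation between flanking doses. Not reached: highest tested concentration assigned. GI50: concentration for 50% inhibition of growth. TGI: concentration producing complete growth inhibition.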

Legend:
Assay in all cases: DTP human tumour cell line panel, 48 h
[1] = tested on: ACHN renal
[2] = tested on: SK-OV-3 ovarian
[3] = tested on: SF-539 CNS
[4] = tested on: BT-549 breast
[5] = tested on: SK-MEL-28 melanoma
[6] = tested on: A549 NSCLC
[7] = tested on: CAKI-1 renal
[8] = tested on: 786-0 renal
[9] = tested on: OVCAR-3 ovarian
[10] = tested on: OVCAR-5 ovarian
[11] = tested on: K-562 leukemia
[12] = tested on: HCC-2998 colon
[13] = tested on: U251 CNS
[14] = tested on: NCI-H460 lung
[15] = tested on: RPMI-8226 leukemia
[16] = tested on: MDA-MB-435
[17] = tested on: HOP-92 NSCLC
[18] = tested on: IGROV1 ovarian
[19] = tested on: KM12 colon
[20] = tested on: M14 melanoma
[21] = tested on: HCT-15 colon
[22] = tested on: OVCAR-8 ovarian
[23] = tested on: HL-60(TB) leukemia
[24] = tested on: NCI-H522 lung
[25] = tested on: HOP-62 NSCLC
[26] = tested on: UO-31 renal
[27] = tested on: SK-MEL-5 melanoma
[28] = tested on: LOX IMVI melanoma
[29] = tested on: OVCAR-4 ovarian
[30] = tested on: NCI-H23 lung
[31] = tested on: SNB-75 CNS
[32] = tested on: HCT-116 colon
[33] = tested on: UACC-62 melanoma
[34] = tested on: EKVX NSCLC
[35] = tested on: MCF7 breast
[36] = tested on: SW-620 colon
[37] = tested on: PC-3 prostate
[38] = tested on: COLO 205 colon
[39] = tested on: CCRF-CEM leukemia
[40] = tested on: NCI-H226 lung
[41] = tested on: TK-10 renal
[42] = tested on: SF-268 CNS
[43] = tested on: A498 renal
[44] = tested on: SK-MEL-2 melanoma
[45] = tested on: HT29 colon
[46] = tested on: SNB-19 CNS
[47] = tested on: SR leukemia
[48] = tested on: HS 578T breast
[49] = tested on: SN12C renal
[50] = tested on: NCI/ADR-RES ovarian
[51] = tested on: MDA-MB-231 breast
[52] = tested on: MOLT-4 leukemia
[53] = tested on: UACC-257 melanoma
[54] = tested on: SF-295 CNS
[55] = tested on: MALME-3M melanoma
[56] = tested on: RXF 393 renal
[57] = tested on: T-47D breast
[58] = tested on: DU-145 prostate

Structure (SMILES): CCN(CC)CCOc1ccc(C(=C(C)c2ccc(OC)cc2)c2ccc(OCCN(CC)CC)cc2)cc1
- GI50 [1]: 1.14 µM
- TGI [1]: 2.75 µM
- GI50 [2]: 1.27 µM
- TGI [2]: 3.17 µM
- GI50 [3]: 0.875 µM
- TGI [3]: 1.65 µM
- GI50 [4]: 1.03 µM
- TGI [4]: 2.92 µM
- GI50 [5]: 0.856 µM
- TGI [5]: 1.62 µM
- GI50 [6]: 1.52 µM
- TGI [6]: 6.02 µM
- GI50 [7]: 0.978 µM
- TGI [7]: 2.3 µM
- GI50 [8]: 0.761 µM
- TGI [8]: 1.8 µM
- GI50 [9]: 1.24 µM
- TGI [9]: 3.62 µM
- GI50 [10]: 1.57 µM
- TGI [10]: 5.68 µM
- GI50 [11]: 0.874 µM
- TGI [11]: 3.8 µM
- GI50 [12]: 1.05 µM
- TGI [12]: 2.39 µM
- GI50 [13]: 0.876 µM
- TGI [13]: 2 µM
- GI50 [14]: 1.44 µM
- TGI [14]: 4.47 µM
- GI50 [15]: 1.14 µM
- TGI [15]: 3.24 µM
- GI50 [16]: 0.903 µM
- TGI [16]: 1.76 µM
- GI50 [17]: 0.627 µM
- TGI [17]: 1.89 µM
- GI50 [18]: 1.29 µM
- TGI [18]: 3.1 µM
- GI50 [19]: 1.8 µM
- TGI [19]: 6.95 µM
- GI50 [20]: 0.936 µM
- TGI [20]: 1.89 µM
- GI50 [21]: 0.731 µM
- TGI [21]: 1.87 µM
- GI50 [22]: 1.68 µM
- TGI [22]: 6.37 µM
- GI50 [23]: 1.27 µM
- TGI [23]: 2.86 µM
- GI50 [24]: 1.01 µM
- TGI [24]: 2.24 µM
- GI50 [25]: 1.44 µM
- TGI [25]: 4.76 µM
- GI50 [26]: 0.789 µM
- TGI [26]: 1.5 µM
- GI50 [27]: 0.873 µM
- TGI [27]: 1.63 µM
- GI50 [28]: 0.53 µM
- TGI [28]: 1.22 µM
- GI50 [29]: 1.06 µM
- TGI [29]: 2.46 µM
- GI50 [30]: 1.47 µM
- TGI [30]: 5.52 µM
- GI50 [31]: 7.59 µM
- TGI [31]: 17.5 µM
- GI50 [32]: 0.614 µM
- TGI [32]: 1.6 µM
- GI50 [33]: 0.887 µM
- TGI [33]: 1.7 µM
- GI50 [34]: 2.01 µM
- TGI [34]: 8.15 µM
- GI50 [35]: 0.275 µM
- TGI [35]: 1.1 µM
- GI50 [36]: 0.936 µM
- TGI [36]: 2.02 µM
- GI50 [37]: 1.18 µM
- TGI [37]: 4.29 µM
- GI50 [38]: 1.06 µM
- TGI [38]: 2.35 µM
- GI50 [39]: 1.26 µM
- TGI [39]: 5.87 µM
- GI50 [40]: 2.43 µM
- TGI [40]: 10.3 µM
- GI50 [41]: 1.15 µM
- TGI [41]: 3.28 µM
- GI50 [42]: 1.21 µM
- TGI [42]: 3.43 µM
- GI50 [43]: 0.997 µM
- TGI [43]: 2.47 µM
- GI50 [44]: 1.03 µM
- TGI [44]: 2.14 µM
- GI50 [45]: 0.665 µM
- TGI [45]: 2.03 µM
- GI50 [46]: 1.61 µM
- TGI [46]: 5.39 µM
- GI50 [47]: 0.289 µM
- TGI [47]: 50 µM
- GI50 [48]: 1.09 µM
- TGI [48]: 3.15 µM
- GI50 [49]: 0.972 µM
- TGI [49]: 2.4 µM
- GI50 [50]: 1.7 µM
- TGI [50]: 6.5 µM
- GI50 [51]: 0.973 µM
- TGI [51]: 2.08 µM
- GI50 [52]: 1.34 µM
- TGI [52]: 5.25 µM
- GI50 [53]: 0.942 µM
- TGI [53]: 1.88 µM
- GI50 [54]: 0.883 µM
- TGI [54]: 1.75 µM
- GI50 [55]: 0.832 µM
- TGI [55]: 1.64 µM
- GI50 [56]: 0.738 µM
- TGI [56]: 1.5 µM
- GI50 [57]: 0.747 µM
- TGI [57]: 2.07 µM
- GI50 [58]: 2.09 µM
- TGI [58]: 8.17 µM

Structure (SMILES): CC(C)(C)c1ccc(C(=O)Nc2sc3c(c2C(N)=O)CCC(O)C3)cc1 (stereo not given)
- GI50 [1]: 0.321 µM
- TGI [1]: 13.2 µM
- GI50 [2]: 3.44 µM
- TGI [2]: 19.2 µM
- GI50 [3]: 1.39 µM
- TGI [3]: 7.19 µM
- GI50 [4]: 3.13 µM
- TGI [4]: 14.2 µM
- GI50 [5]: 2.95 µM
- TGI [5]: 15.1 µM
- GI50 [6]: 2.23 µM
- TGI [6]: 33 µM
- GI50 [7]: 0.109 µM
- TGI [7]: 3.61 µM
- GI50 [8]: 1.98 µM
- TGI [8]: 6.35 µM
- GI50 [9]: 3.11 µM
- TGI [9]: 13.3 µM
- GI50 [10]: 3.14 µM
- TGI [10]: 17.4 µM
- GI50 [11]: 0.0507 µM
- TGI [11]: 1.22 µM
- GI50 [12]: 1.05 µM
- TGI [12]: 6.78 µM
- GI50 [13]: 3.95 µM
- TGI [13]: 19.6 µM
- GI50 [14]: 0.493 µM
- TGI [14]: 10.6 µM
- GI50 [15]: 2 µM
- TGI [15]: 5.42 µM
- GI50 [16]: 0.422 µM
- TGI [16]: 15.6 µM
- GI50 [17]: 2.74 µM
- TGI [17]: 16.5 µM
- GI50 [18]: 3.24 µM
- TGI [18]: 18.5 µM
- GI50 [19]: 0.365 µM
- TGI [19]: 3.15 µM
- GI50 [20]: 0.995 µM
- TGI [20]: 4.71 µM
- GI50 [21]: 0.729 µM
- TGI [21]: 10.4 µM
- GI50 [22]: 2.64 µM
- TGI [22]: 87.4 µM
- GI50 [23]: 1.77 µM
- TGI [23]: 15 µM
- GI50 [25]: 1.42 µM
- TGI [25]: 8.65 µM
- GI50 [26]: 2.03 µM
- TGI [26]: 12.8 µM
- GI50 [27]: 0.908 µM
- TGI [27]: 3.7 µM
- GI50 [28]: 0.228 µM
- TGI [28]: 1.75 µM
- GI50 [29]: 0.747 µM
- TGI [29]: 17.1 µM
- GI50 [30]: 4.16 µM
- TGI [30]: 22.8 µM
- GI50 [31]: 3.18 µM
- TGI [31]: 15.1 µM
- GI50 [32]: 1.14 µM
- TGI [32]: 11.5 µM
- GI50 [33]: 0.333 µM
- TGI [33]: 19.9 µM
- GI50 [34]: 3.52 µM
- TGI [34]: 18.5 µM
- GI50 [35]: 0.753 µM
- TGI [35]: 10.5 µM
- GI50 [36]: 0.597 µM
- TGI [36]: 11 µM
- GI50 [37]: 2.77 µM
- TGI [37]: 16.4 µM
- GI50 [38]: 0.377 µM
- TGI [38]: 1.72 µM
- GI50 [39]: 2.01 µM
- TGI [39]: 10.6 µM
- GI50 [40]: 2.96 µM
- TGI [40]: 27 µM
- GI50 [41]: 4.37 µM
- TGI [41]: 18.4 µM
- GI50 [42]: 4.39 µM
- TGI [42]: 17.9 µM
- GI50 [43]: 1.46 µM
- TGI [43]: 4.79 µM
- GI50 [44]: 4.46 µM
- TGI [44]: 19 µM
- GI50 [45]: 0.569 µM
- TGI [45]: 3.23 µM
- GI50 [46]: 8.94 µM
- TGI [46]: 21.2 µM
- GI50 [47]: 0.312 µM
- TGI [47]: 4.87 µM
- GI50 [48]: 4.18 µM
- TGI [48]: 35.1 µM
- GI50 [49]: 6.33 µM
- TGI [49]: 22.2 µM
- GI50 [50]: 2.33 µM
- TGI [50]: 31.7 µM
- GI50 [51]: 2.17 µM
- TGI [51]: 5.32 µM
- GI50 [52]: 1.65 µM
- TGI [52]: 11.5 µM
- GI50 [53]: 1.27 µM
- TGI [53]: 10.1 µM
- GI50 [54]: 0.582 µM
- TGI [54]: 2.54 µM
- GI50 [55]: 4.16 µM
- TGI [55]: 17 µM
- GI50 [56]: 1.77 µM
- TGI [56]: 4.93 µM
- GI50 [57]: 0.625 µM
- TGI [57]: 14.8 µM
- GI50 [58]: 2.7 µM
- TGI [58]: 17.4 µM
